Data: PubChem BioAssay (NCI)
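In this assay, cells in 96-well plates receive the compound at five concentrations for 48 hours. Endpoints are linearly interpolated between the surrounding concentrations. The concentration for 50% growth inhibition is given as GI50. TGI: concentration producing complete growth inhibition.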 Where a SMILES comes first, the peptide text is derived from it. [ ]: non-standard residue; d: D form. The star is where a group is joined. NMeF = CN[C@@H](Cc1ccccc1)C(=O)O; NMeV = CN[C@H](C(=O)O)C(C)C; Boc = CC(C)(C)OC(=O)*; OBn = c1ccc(CO*)cc1

Legend:
Assay in all cases: NCI-60 cell line screen, 48 h
ACHN renal = tested on: ACHN renal
CCRF-CEM leukemia = tested on: CCRF-CEM leukemia
COLO 205 colon = tested on: COLO 205 colon
HCC-2998 colon = tested on: HCC-2998 colon
M14 melanoma = tested on: M14 melanoma
MCF7 breast = tested on: MCF7 breast
OVCAR-5 ovarian = tested on: OVCAR-5 ovarian
SF-268 CNS = tested on: SF-268 CNS
SNB-19 CNS = tested on: SNB-19 CNS
SNB-75 CNS = tested on: SNB-75 CNS

SMILES	TGI (ACHN renal)	GI50 (CCRF-CEM leukemia)	TGI (CCRF-CEM leukemia)	GI50 (COLO 205 colon)	TGI (COLO 205 colon)	GI50 (HCC-2998 colon)	TGI (HCC-2998 colon)	GI50 (M14 melanoma)	TGI (M14 melanoma)	TGI (MCF7 breast)	TGI (OVCAR-5 ovarian)	GI50 (SF-268 CNS)	TGI (SF-268 CNS)	TGI (SNB-19 CNS)	GI50 (SNB-75 CNS)	TGI (SNB-75 CNS)	GI50 (ACHN renal)	GI50 (MCF7 breast)	GI50 (OVCAR-5 ovarian)	GI50 (SNB-19 CNS)
CC(C)[C@@H](C(=O)N1CCC[C@H]1C(=O)OCc1ccccc1)N(C)C(=O)[C@H](C(C)C)N(C)C(=O)[C@H](Cc1ccccc1)N(C)C(=O)[C@H](NC(=O)OC(C)(C)C)C(C)C (Boc-[dV][NMeF][NMeV][NMeV]P-OBn)	> 100 µM	36.9 µM	> 100 µM	36.1 µM	> 100 µM	68.9 µM	> 100 µM	41.7 µM	> 100 µM	> 50 µM	> 100 µM	> 100 µM	> 100 µM	> 100 µM	> 100 µM	> 100 µM				
CCOC(=O)c1c(Cl)c2c(n1Cc1cccc(OC)c1)-c1oncc1CC2	> 100 µM	2.07 µM	84 µM	1.62 µM	11.3 µM	3.01 µM	19.6 µM	2.07 µM	> 100 µM	> 100 µM	> 100 µM	9.31 µM	> 100 µM	> 100 µM	1.61 µM	5.35 µM	4.54 µM	0.62 µM	10.1 µM	4.41 µM
Cc1cc(C)c2nc3nc(C)cc(C)c3c(N)c2c1	49.4 µM	9.33 µM	45.7 µM	2.78 µM	11.8 µM	9.61 µM	22.5 µM	4.53 µM	16.1 µM	16.7 µM	29.5 µM	5.38 µM	21.6 µM	35.9 µM	4.86 µM	18.3 µM	3.29 µM	3.54 µM	4.3 µM	8.51 µM
Cc1ccc(-c2nc(N)c(C#N)c3c2CCOc2c-3ccc3ccccc23)cc1	> 36.1 µM	0.224 µM	1.36 µM	0.418 µM	> 100 µM	0.142 µM		0.377 µM	> 22.9 µM	> 34.4 µM	> 100 µM	0.356 µM	31.6 µM	> 100 µM	5.02 µM	> 100 µM	0.847 µM	0.284 µM	4.74 µM	2.08 µM
OCC1OC2OC3C(CO)OC(OC4C(CO)OC(OC5C(CO)OC(OC6C(CO)OC(OC7C(CO)OC(OC1C(O)C2O)C(O)C7O)C(O)C6O)C(O)C5O)C(O)C4O)C(O)C3O (stereo not given) (tested in a mixture with another compound)	> 100 µM		> 100 µM		> 100 µM		> 100 µM		> 100 µM	> 100 µM	> 100 µM		> 100 µM	> 100 µM		> 100 µM				
N#C/C(=C1C=C/C(=N\O)C(Cl)=C\1)c1ccccc1	11.6 µM	0.37 µM	2.37 µM	7.52 µM	24.4 µM	4.27 µM	15.8 µM	3.2 µM	14.2 µM	11.5 µM	13.7 µM	2.19 µM	14.3 µM	> 100 µM	3.5 µM	20.5 µM	0.733 µM	0.321 µM	3.71 µM	22.1 µM
CC(C)n1c(=O)n(C)c2cnc3cc(F)c(-c4ccc(OCCCN5CCCCC5)nc4)cc3c21	76.8 µM	9.9 µM	31.8 µM	7.39 µM	23.4 µM	23.3 µM	> 100 µM	14.6 µM	31.6 µM	21.6 µM	55.7 µM	11.9 µM	40.2 µM	77.5 µM	4.24 µM	18.1 µM	16.2 µM	7.46 µM	15.7 µM	17.4 µM
O=C(CN1C(=O)S/C(=C\C(Cl)=C\c2ccccc2)C1=O)NCCc1ccc(O)cc1	8.06 µM	2.16 µM	> 100 µM	2.31 µM	5.68 µM	1.85 µM	3.33 µM	1.65 µM	4.11 µM	11.5 µM	5.66 µM	2.28 µM	6.63 µM	9.46 µM	1.05 µM	6.64 µM	2.55 µM	1.79 µM	2.31 µM	2.54 µM
COc1nc(N)nc2c1ncn2[C@@H]1O[C@H](CO)[C@@H](O)[C@@H]1O	> 100 µM	2.66 µM	> 100 µM	> 100 µM	> 100 µM	> 100 µM	> 100 µM	> 100 µM	> 100 µM	> 100 µM	> 100 µM	> 100 µM	> 100 µM	> 100 µM	> 100 µM	> 100 µM	> 100 µM	> 100 µM	> 100 µM	> 100 µM
O=C(O)CP(=O)(O)O	> 100 µM		> 100 µM		> 100 µM		> 100 µM		> 100 µM	> 100 µM	> 100 µM		> 100 µM	> 100 µM		> 100 µM				
COc1cc(/C=C2\C(=O)N(c3ccccc3)c3ccccc32)cc(OC)c1OC	20.7 µM	1.75 µM	7.78 µM	14.4 µM	71.3 µM	10.6 µM	23.9 µM	11.3 µM	26.9 µM	> 100 µM	29 µM	4.32 µM	15.3 µM	25.5 µM	4.82 µM	18.8 µM	6.32 µM	8.05 µM	14.1 µM	6.1 µM
COc1ccc(CCN2CCC(Nc3nc4ccccc4n3Cc3ccc(F)cc3)CC2)cc1	2.93 µM	1.87 µM	5.45 µM	1.52 µM	2.98 µM	0.46 µM	1.69 µM	1.72 µM	3.15 µM	2.81 µM	3.7 µM	1.56 µM	2.95 µM	3.93 µM	1.24 µM	2.54 µM	1.55 µM	1.41 µM	1.66 µM	1.77 µM
CC(=O)OC1Oc2cc(C)c(C)cc2-c2oc(=O)c(-c3ccc(F)cc3)cc21 (stereo not given)	> 100 µM	3.61 µM	21.4 µM	7.3 µM	26.1 µM	3.97 µM	28.2 µM	3.99 µM	> 100 µM	20.1 µM	> 100 µM	9.32 µM	> 100 µM	> 100 µM	4.34 µM	80.8 µM	11.9 µM	3.08 µM	6.3 µM	11.6 µM
CC1(C)N=C(N)N=C(N)N1c1cccc(CCCCOc2ccccc2)c1	> 100 µM	0.0414 µM	32.7 µM	0.0222 µM	14.4 µM	0.0775 µM	17.2 µM	0.0958 µM	> 41.3 µM	17.5 µM	> 100 µM	0.0558 µM	22.9 µM	> 77.4 µM	0.195 µM	22.9 µM	3.85 µM	0.05 µM	< 0.0335 µM	0.326 µM
COc1ccc2cc(Cn3cc[n+](Cc4ccc5ccccc5c4)c3)ccc2c1	30.4 µM	2.66 µM	10.4 µM	1.44 µM	3.28 µM	2.11 µM	5.28 µM	1.77 µM	4.21 µM	9.88 µM	12.5 µM	2.53 µM	11.8 µM	6.65 µM	1.39 µM	4.19 µM	14.3 µM	2.57 µM	2.7 µM	1.93 µM
C=CC[C@@H]1/C=C(\C)C[C@H](C)C[C@H](OC)[C@H]2O[C@@](O)(C(=O)C(=O)N3CCCC[C@H]3C(=O)O[C@H](/C(C)=C/C3CC[C@@H](O)[C@H](OC)C3)[C@H](C)[C@@H](O)CC1=O)[C@H](C)C[C@@H]2OC (stereo not given in full)	29.5 µM	14.6 µM	39.7 µM	19.3 µM	36.6 µM	18.8 µM	34.7 µM	14.9 µM	28.6 µM	29 µM	37.2 µM	13.8 µM	27.3 µM	30.4 µM	12.3 µM	25.1 µM	15.4 µM	13.8 µM	17.2 µM	15.6 µM
O=C1CC[C@H](c2ccc(O)c3c2C(=O)[C@@H]2O[C@@H]2C3=O)c2cccc(O)c21	4.16 µM	1.05 µM	5.76 µM	1.24 µM	2.88 µM	2.12 µM	4.29 µM	1.9 µM	4.09 µM	4.2 µM	20.3 µM	2.32 µM	6.17 µM	33.6 µM	26.7 µM	> 100 µM	1.46 µM	1.17 µM	4.55 µM	10.6 µM
COc1ccc(-c2nn(-c3cccc(NC(=O)c4cccc(C(F)(F)F)c4)c3)cc2-c2ccncc2)cc1Cl	> 100 µM	1.9 µM	> 100 µM	1.77 µM	3.53 µM	3.29 µM	17 µM	2.23 µM	25.3 µM	24.8 µM	> 100 µM	4.08 µM	> 100 µM	> 100 µM	1.17 µM	4.07 µM	4.4 µM	1.81 µM	12.2 µM	5.7 µM
CC1OC(n2c3ccccc3c3c4c(c5c6ccccc6[nH]c5c32)C(=O)N(CCN2CCOCC2)C4=O)CC(O)C1O (stereo not given)	6.74 µM	2.1 µM	18.1 µM	1.22 µM	7.81 µM	7.03 µM	14 µM	1.43 µM	5.95 µM	18 µM	12.9 µM	1.66 µM	9.65 µM	17.8 µM	0.729 µM	5.87 µM	1.51 µM	1.05 µM	5.36 µM	2.18 µM
COc1ccc(OC)c(/C=C2\COc3ccc(O)c(O)c3C2=O)c1	3.97 µM	0.679 µM	34.4 µM	3.22 µM	9.51 µM	1.88 µM	3.48 µM	2.09 µM	6.9 µM	14.4 µM	6.48 µM	2.19 µM	10.8 µM	11.1 µM	3.72 µM	18.3 µM	1.84 µM	1.2 µM	2.62 µM	3.09 µM
